Structures are written as SMILES.

The data set is described as follows: Half life in human. Type of data set: ADME.
What is called half-life is the time in which the quantity being followed falls by half. High values mean slow loss, low ones fast loss. In turn, `Cn1cc(-c2cnn3ccc(N4CCC[C@@H]4c4cc(F)ccc4F)nc23)cn1` displayed a half-life of 3 min.
For `C[C@@H](Nc1ccn2ncc(-c3cnn(C)c3)c2n1)c1cc(F)ccc1OCC(F)F` the value was 315 min.
In turn, `Cn1cc(-c2cnn3ccc(N4CCC[C@@H]4c4cc(F)ccc4OCC(F)F)nc23)cn1` showed a half-life of 8.3 min.

For the origin of these results see ChEMBL document CHEMBL5584318, “Targeting Solvent-Front Mutations for Kinase Drug Discovery: From Structural Basis to Design Strategies” (J Med Chem, 2024).
